{
  "source": "patent US20160215305A1",
  "about": "“Process of Fermenting A Lignocellulosic Biomass” (priority 2015, published 2016)",
  "key": {"S. cerevisiae [1]": {"system": "S. cerevisiae", "assay": "Batch fermentation of amino acid detoxified loblolly pine hydrolysates by Baker yeast", "assay_type": "cell-based, Saccharomyces cerevisiae", "conditions": "for CEtOH, ethanol final concentration at 48 h / QEtOH, volumetric ethanol productivity in the first 6 h / RG, glucose consumption rate in the first 6 h / RM, mannose consumption rate in the first 6 h / YEtOH, ethanol yield from total glucose and mannose at 48 h: hydrolysates detoxified with amino acid 0.2% w/v", "excerpt": "Loblolly pine (Pinus taeda) wood chips (1.0×1.0 cm, L×W) were collected by Forest Products Laboratory at Auburn University, located in Auburn, Ala. Dilute acid pretreatment was used to produce biomass hydrolysates in a 4.0 L Parr batch reactor (Parr Instrument Co., Moline, Ill.) as previously described (Lai, C. H., Tu, M. B., Li, M., Yu, S. Y. 2014. Remarkable solvent and extractable lignin effects on enzymatic digestibility of organosolv pretreated hardwood. Bioresource Technology, 156, 92-98). Briefly, wood chips (400 grams, dry weight) were soaked in 1% (w/w) sulfuric acid overnight (7:1 liquor/solid ratio) prior to the pretreatment, and then loaded into a reactor and treated at 170° C. for 60 minutes.\nTo achieve higher ethanol titer in fermentation, loblolly pine hydrolysates were concentrated to approximately one-third of its original volume using a rotary evaporator (IKA RV10 basic) at 40° C. and 60 rotations per minute (rpm). The hydrolysates were first adjusted to pH 4.0 before evaporation. After the concentration, the sugar contents of the hydrolysates were analyzed by HPLC.\n[…] The detoxification experiments were performed in a 250 mL flask and placed in a temperature-controlled water batch.\nBaker yeast (Fleischmann's), S. cerevisiae, was used for all the fermentation experiments in this study. The yeast was maintained on YDP medium containing (g/L): 20 glucose, 20 peptone, 10 yeast extract and 20 agar. Isolated colony was grown in YDP liquid medium overnight and harvested as fermentation inoculum. The yeast concentration was measured using an UV-vis spectrophotometer. Inoculum of 2.0 g/L was used for all fermentation experiments.\n(§1) Batch fermentation was carried out in 125 mL serum bottles containing 50 mL broths (untreated or detoxified hydrolysates, untreated or detoxified cinnamaldehyde sugar solution) without any additional nutrient supplement. All the fermentation broths were adjusted to pH 6 with NaOH or H2SO4 and sterilized by passing 0.2 μm sterile filters. After inoculation, the serum bottle was sealed with rubber stopper and aluminum seal, and equipped with cannulas for CO2 release. All fermentation experiments were incubated at 30° C., spun at 150 rpm in a shaker (E24, New Brunswick Scientific). Aliquots of samples were withdrawn at 0, 1, 3, 6, 9, 12, 24, 36 and 48 hours for the time course analysis of both starting material and products. Fermentation was carried out in duplicate. The volumetric ethanol productivity and initial consumption rate of glucose (RG) and mannose (RM) was calculated based on the sugar consumed in the first 6 h of fermentation as described previously (Cao, D. X., Tu, M. B., Xie, R., Li, J., Wu, Y. N., Adhikari, S. 2014. Inhibitory Activity of Carbonyl Compounds on Alcoholic Fermentation by Saccharomyces cerevisiae. Journal of Agricultural and Food Chemistry, 62(4), 918-926).\nEthanol, acetic acid, levulinic acid, formic acid, furfural and HMF were analyzed using an Aminex HPX-87H column (300×7.8 mm) with a refractive index detector. The elution conditions were column temperature of 45° C. and flow rate of 0.6 ml/min with 5.0 mM H2SO4 as the mobile phase in a 60 min isocratic run."}, "S. cerevisiae [2]": {"system": "S. cerevisiae", "assay": "Fermentation of glucose solution with model inhibitors (cinnamaldehyde, vanillin), with or without cysteine or glycine detoxification", "assay_type": "cell-based, Saccharomyces cerevisiae", "conditions": "for detoxification of cinnamaldehyde in glucose solution (fermentation): 2.5 mM cinnamaldehyde", "description": "as §1\nPreparation of the lignocellulosic biomass and the treatment thereof was performed as described in Example 1. After detoxification, the detoxified hydrolysates were cooled to room temperature and then readjusted to pH 6.0 if needed. Similarly, for the model compound (cinnamaldehyde) detoxification, glucose (˜20 g/L) was mixed with 2.5 mM cinnamaldehyde, and then treated with 5 mM cysteine or glycine at 60° C. for 2 hours prior to fermentation.\nTo ascertain the potential reaction mechanism in amino acids detoxification of biomass hydrolysates, cinnamaldehyde was detoxified in glucose solution with cysteine and glycine."}, "S. cerevisiae [3]": {"system": "S. cerevisiae", "conditions": "cited from earlier work"}, "[4]": {"conditions": "detoxification at 80° C., pH 6.0, 2 hours"}, "[5]": {"conditions": "pH 6.0, 60° C., 2 hours, listed as cysteine"}, "[6]": {"conditions": "pH 6.0, 60° C., 2 hours detoxification"}, "[7]": {"conditions": "glucose ~20 g/L, 5 mM amino acid, 60° C., 2 hours"}, "[8]": {"conditions": "detoxification at 50° C., pH 6.0, 2 hours"}, "[9]": {"conditions": "detoxification at pH 8.0, 60° C., 2 hours"}, "[10]": {"conditions": "pH 6.0, 60° C., 2 hours, listed as glycine"}},
  "data": [
    {"smiles": "N[C@@H](CS)C(=O)O", "note": "[Cysteine, cysteine]", "values": [
      {"measurement": "increase of volumetric ethanol productivity when pH was increased from 2 and 4 to 6", "setting": "S. cerevisiae [1]; 60° C., 2 hours", "value": 92, "unit": "%"},
      {"measurement": "final ethanol yield", "setting": "S. cerevisiae [1]; detoxification at 20, 40, 60 and 80° C. (approximately the same), pH 6.0", "value": "~0.42", "unit": "g/g"},
      {"measurement": "final ethanol concentration", "setting": "S. cerevisiae [1]; detoxification at 20, 40, 60 and 80° C. (the same), pH 6.0", "value": "about 23.34 g/L"},
      {"measurement": "volumetric ethanol productivity", "setting": "S. cerevisiae [1]; detoxification at 20° C., pH 6.0, 2 hours", "value": 0.83, "unit": "g/L/h"},
      {"measurement": "volumetric ethanol productivity", "setting": "S. cerevisiae [1]; detoxification at 40° C., pH 6.0, 2 hours", "value": 1.19, "unit": "g/L/h"},
      {"measurement": "volumetric ethanol productivity", "setting": "S. cerevisiae [1]; [4]", "value": 1.90, "unit": "g/L/h"},
      {"measurement": "final ethanol concentration", "setting": "S. cerevisiae [1]; detoxification at pH 2.0, 4.0 and 6.0 (the same), 60° C.", "value": 23.56, "unit": "g/L"},
      {"measurement": "volumetric ethanol productivity", "setting": "S. cerevisiae [1]; detoxification at pH 2 and 4, 60° C., 2 hours", "value": 0.92, "unit": "g/L/h"},
      {"measurement": "CEtOH, ethanol final concentration at 48 h", "setting": "S. cerevisiae [1]; pH 6.0, 60° C., 2 hours", "value": "23.14 ± 0.10", "unit": "g/L"},
      {"measurement": "QEtOH, volumetric ethanol productivity in the first 6 h", "setting": "S. cerevisiae [1]; pH 6.0, 60° C., 2 hours", "value": "1.77 ± 0.03", "unit": "g/L/h"},
      {"measurement": "RG, glucose consumption rate in the first 6 h", "setting": "S. cerevisiae [1]; pH 6.0, 60° C., 2 hours", "value": "2.10 ± 0.04", "unit": "g/L/h"},
      {"measurement": "RM, mannose consumption rate in the first 6 h", "setting": "S. cerevisiae [1]; pH 6.0, 60° C., 2 hours", "value": "2.16 ± 0.12", "unit": "g/L/h"},
      {"measurement": "YEtOH, ethanol yield from total glucose and mannose at 48 h", "setting": "S. cerevisiae [1]; pH 6.0, 60° C., 2 hours", "value": "0.42 ± 0.00", "unit": "g/g"},
      {"measurement": "CEtOH, ethanol final concentration at 48 h", "setting": "S. cerevisiae [1]; [5]", "value": 23.14, "unit": "g/L"},
      {"measurement": "QEtOH, volumetric ethanol productivity in the first 6 h", "setting": "S. cerevisiae [1]; [5]", "value": 1.77, "unit": "g/L/h"},
      {"measurement": "RG, glucose consumption rate in the first 6 h", "setting": "S. cerevisiae [1]; [5]", "value": 2.10, "unit": "g/L/h"},
      {"measurement": "RM, mannose consumption rate in the first 6 h", "setting": "S. cerevisiae [1]; [5]", "value": 2.16, "unit": "g/L/h"},
      {"measurement": "YEtOH, ethanol yield from total glucose and mannose at 48 h", "setting": "S. cerevisiae [1]; [5]", "value": 0.42, "unit": "g/g"},
      {"measurement": "ethanol productivity higher than positive sugar control (1.39 g/L/h)", "setting": "S. cerevisiae [1]; [6]", "value": 27, "unit": "%"},
      {"measurement": "improvement of mannose consumption rate compared to the positive sugar control", "setting": "S. cerevisiae [1]; [6]", "value": 43, "unit": "%"},
      {"measurement": "increase of volumetric ethanol productivity when temperature was changed from 20 to 40, 60, and 80° C.", "setting": "S. cerevisiae [1]; pH 6.0, 2 hours", "value": "43-130%"},
      {"measurement": "detoxification of cinnamaldehyde in glucose solution (fermentation)", "setting": "S. cerevisiae [2]; [7]", "value": "detoxified cinnamaldehyde very effectively"}
    ]},
    {"smiles": "NCC(=O)O", "note": "[Glycine, glycine]", "values": [
      {"measurement": "ethanol productivity", "setting": "S. cerevisiae [1]; [8]", "value": 0.24, "unit": "g/L/h"},
      {"measurement": "final ethanol concentration", "setting": "S. cerevisiae [1]; [8]", "value": 1.87, "unit": "g/L"},
      {"measurement": "final ethanol concentration", "setting": "S. cerevisiae [1]; detoxification at 70 and 80° C., pH 6.0, 2 hours", "value": 23.00, "unit": "g/L"},
      {"measurement": "ethanol productivity", "setting": "S. cerevisiae [1]; detoxification at 70° C., pH 6.0, 2 hours", "value": 1.08, "unit": "g/L/h"},
      {"measurement": "volumetric ethanol productivity", "setting": "S. cerevisiae [1]; [4]", "value": 1.33, "unit": "g/L/h"},
      {"measurement": "fermentability of detoxified biomass hydrolysates", "setting": "S. cerevisiae [1]; detoxification at pH 2.0 and 4.0, 60° C., 2 hours", "value": "not fermentable"},
      {"measurement": "fermentability of detoxified hydrolysates", "setting": "S. cerevisiae [1]; detoxification at pH 2.0 and 4.0, 80° C.", "value": "still not fermentable"},
      {"measurement": "ethanol productivity", "setting": "S. cerevisiae [1]; [9]", "value": 0.87, "unit": "g/L/h"},
      {"measurement": "final ethanol concentration", "setting": "S. cerevisiae [1]; [9]", "value": 23.77, "unit": "g/L"},
      {"measurement": "CEtOH, ethanol final concentration at 48 h", "setting": "S. cerevisiae [1]; pH 6.0, 60° C., 2 hours", "value": "8.58 ± 0.27", "unit": "g/L"},
      {"measurement": "QEtOH, volumetric ethanol productivity in the first 6 h", "setting": "S. cerevisiae [1]; pH 6.0, 60° C., 2 hours", "value": "0.42 ± 0.01", "unit": "g/L/h"},
      {"measurement": "RG, glucose consumption rate in the first 6 h", "setting": "S. cerevisiae [1]; pH 6.0, 60° C., 2 hours", "value": "0.39 ± 0.01", "unit": "g/L/h"},
      {"measurement": "RM, mannose consumption rate in the first 6 h", "setting": "S. cerevisiae [1]; pH 6.0, 60° C., 2 hours", "value": "0.50 ± 0.05", "unit": "g/L/h"},
      {"measurement": "YEtOH, ethanol yield from total glucose and mannose at 48 h", "setting": "S. cerevisiae [1]; pH 6.0, 60° C., 2 hours", "value": "0.16 ± 0.01", "unit": "g/g"},
      {"measurement": "CEtOH, ethanol final concentration at 48 h", "setting": "S. cerevisiae [1]; [10]", "value": 8.58, "unit": "g/L"},
      {"measurement": "QEtOH, volumetric ethanol productivity in the first 6 h", "setting": "S. cerevisiae [1]; [10]", "value": 0.42, "unit": "g/L/h"},
      {"measurement": "YEtOH, ethanol yield from total glucose and mannose at 48 h", "setting": "S. cerevisiae [1]; [10]", "value": 0.16, "unit": "g/g"},
      {"measurement": "detoxification of cinnamaldehyde in glucose solution (fermentation)", "setting": "S. cerevisiae [2]; glucose solution, detoxified at 80° C.", "value": "became fermentable"},
      {"measurement": "detoxification of cinnamaldehyde in glucose solution (fermentation)", "setting": "S. cerevisiae [2]; [7]", "value": "did not detoxify the cinnamaldehyde"}
    ]},
    {"smiles": "O=Cc1ccc(CO)o1", "note": "[HMF, hydroxymethylfurfural]", "values": [
      {"measurement": "effect on ethanol production by S. cerevisiae", "setting": "S. cerevisiae [3]; addition of 25 mM (3.16 g/L)", "value": "did not affect the ethanol production"}
    ]},
    {"smiles": "CC(=O)O", "note": "[acetic acid]", "values": [
      {"measurement": "increase of final ethanol yield in S. cerevisiae fermentation", "setting": "S. cerevisiae [3]; 9 g/L at pH 5", "value": 16, "unit": "%"}
    ]},
    {"smiles": "O=CC=Cc1ccccc1", "note": "[cinnamaldehyde, reference compound]", "values": [
      {"measurement": "inhibition of glucose fermentation", "setting": "S. cerevisiae [2]; 2.5 mM inhibitor in glucose solution, preliminary results", "value": "inhibited glucose fermentation significantly"}
    ]},
    {"smiles": "COc1cc(C=O)ccc1O", "note": "[vanillin, reference compound]", "values": [
      {"measurement": "inhibition of glucose fermentation (final ethanol concentration and yield)", "setting": "S. cerevisiae [2]; 10 mM inhibitor in glucose solution, preliminary results", "value": "did not inhibit the final ethanol concentration and yield"}
    ]}
  ]
}
